Here are results for 5 molecules from patent EP0511381B1, “SQUARYLIUM AND CROCONYLIUM DYES” (POLAROID CORPORATION, priority 1990, dated 1992).

Structures can show the parent of a compound that is named as a salt.

Common to all, as to type: physicochemical
The nature of series [1]: Solubility in dichloromethane (saturated solution). To be noted: weight percentage of dye to solvent in a saturated solution. The source says:
This Example illustrates the high solubility in halogenated organic solvents which can be achieved by dyes of the present invention, as compared with similar dyes which bear 2-phenyl or -substituted phenyl groups.

Series [2] is described as follows: Storage stability of thermal imaging medium containing the dye. To be noted: imaging medium (dye, leuco dye LD3, polyurethane Estane 5715 binder) stored at 60°C for 4 days. As to the method: A coating fluid was prepared by combining the infra-red dye of Formula IR4 above (prepared in Example 12 above, 2.6 mg) with a leuco dye of Formula LD3 above (110 mg) and a polymeric binder (polyurethane Estane 5715, supplied by B.F. Goodrich, 0.73 mL of a 15% solution in acetone). The fluid was diluted with acetone (0.157 mL), then coated onto a 4 mil (101 »m) transparent poly(ethylene terephthalate) base using a #12 coating rod. The film so formed was laminated at 180°F […] and 60 psi (0.4 MPa) to a second sheet of 4 mil (101 »m) poly(ethylene terephthalate) which had been coated with Joncryl 138 to a thickness of approximately 2 »m.

A short description of series [3]: Absorption and thermal stability of dye in polymer films. To be noted: for Width: full width of infra-red absorption peak at half maximum. Also noted: λmax: unit not given here. As to the method:
This Example illustrates the high absorptions which can be achieved by a dye of the present invention when dispersed in a polymer, and the thermal stability of such dispersed polymer.
The polymers tested in this Example were polystyrene/acrylonitrile, polyvinylbutyral and polyvinylformal polymers. 10.0 mg of the dye (hereinafter referred to as "Dye B") prepared as described in Example 5 above was dissolved in 2.0 mL of a 2.5% w/v solution of each polymer in dichloromethane, and the resultant solution was coated onto a transparent 4 mil polyvinyl chloride base using a No. 10 coating rod. The resultant film was oven dried at 80°C for 10 minutes. After the film had cooled, the wavelength of maximum infra-red absorption (λmax), the absorbance at λmax (Amax), and the full width of the infra-red absorption peak at half maximum were measured. The film samples were then stored in the dark for 15 days at 80°C, and the same absorption parameters were remeasured to give the data shown in Table 1, in which initial values are shown, with values after heating in parentheses.

The nature of series [4]: Photochemical stability of dye in polymer films. As for the experimental part:
This Example illustrates the photochemical stability of a dye of the present invention in a polymer matrix.
20 mg of Dye B prepared as described in Example 5 above and 100 mg of a test polymer (polyvinylbutyral or polyacrylate) were dissolved in dichloromethane, and the resultant solution was coated onto PET transparent base using a #4 coating rod. The maximum absorbance of the resultant film was measured before and after exposure of the coated side of the base to irradiation with a fluorescent lamp (560 ft. candles) for 24 or 67 hours. The results are shown in Table 2 below (with the absorbance after irradiation in parentheses).

Setting [5] is: Polyvinylbutyral film, after 15 days at 80°C in the dark.
Where [6] appears, read: Polyvinylbutyral film, initial value.
The mark [7] stands for this setting: Polyvinylformal film, after 15 days at 80°C in the dark.
Where [8] appears, read: Polyvinylformal film, initial value.
[9] abbreviates: SAN (polystyrene/acrylonitrile) film, after 15 days at 80°C in the dark.
The mark [10] stands for this setting: SAN (polystyrene/acrylonitrile) film, initial value.

`CCN(CC)c1ccc2c(c1)OC(C1CCCCC1)=CC2=CC1=C([O-])C(=Cc2cc(C3CCCCC3)[o+]c3cc(N(CC)CC)ccc23)C1=O` [Dye F, 4-[[3-[2-cyclohexyl-7-diethylamino-(benz[b]-4H-pyran-4-ylidene)methyl]-2-hydroxy-4-oxo-2-cyclobuten-1-ylidene]methyl]-2-cyclohexyl-7-diethylaminobenz[b]pyrylium hydroxide inner salt dye]: the Solubility in series [1] turned out to be 0.4 wt. %.
In series [1], `CCN(CC)c1ccc2c(c1)OC(c1ccc(C)cc1C)=CC2=CC1=C([O-])C(=Cc2cc(-c3ccc(C)cc3C)[o+]c3cc(N(CC)CC)ccc23)C1=O` [Control Dye z, reference compound] registered a Solubility of 0.1 wt. %.
Regarding `CCC(CC)COc1ccc2c(c1)OC(C(C)(C)C)=CC2=CC1=C([O-])C(=Cc2cc(C(C)(C)C)[o+]c3cc(N(CC)CC)ccc23)C1=O` [IR4, 4-[[3-[[7-diethylamino-2-[1,1-dimethylethyl]benz[b]-4H-pyran-4-ylidene]methyl]-2-hydroxy-4-oxo-2-cyclobuten-1-ylidene]methyl]-7-[2-ethylbut-1-oxy]-2-[1,1-dimethylethyl]benz[b]pyrylium hydroxide inner salt dye], in series [2], the “loss of near infra-red absorption” value came out at 2.4%.
As for `CCN(CC)c1ccc2c(c1)OC(C(C)(C)C)=CC2=CC1=C([O-])C(=Cc2cc(C(C)(C)C)[o+]c3cc(N(CC)CC)ccc23)C1=O` [Dye B], the Solubility in series [1] stood at 11.5 wt. %. In addition, the Amax in series [3] (setting [5]) is on record as 2.16; in series [3] (setting [6]) it was 2.99; in series [3] (setting [7]) it was 2.64; in series [3] (setting [8]), 2.62; in series [3] (setting [9]) it was 2.68; in series [3] (setting [10]), 2.59. In addition, the Amax in series [4] (Polyacrylate film, after 24 hours irradiation with fluorescent lamp (560 ft. candles)) came to 0.78; in series [4] (Polyacrylate film, before irradiation), 0.84; in series [4] (Polyvinylbutyral film, after 67 hours irradiation with fluorescent lamp (560 ft. candles)) it was 1.018; in series [4] (Polyvinylbutyral film, before irradiation) it was 1.225. Moreover, the λmax is 812 in series [3] (setting [5]); 815 in series [3] (setting [6]); 820 (820) in series [3] (setting [7]); 820 (820) in series [3] (setting [8]); 826 (826) in series [3] (setting [9]); 826 (826) in series [3] (setting [10]). The Width in series [3] (setting [5]) is given as 79 nm; in series [3] (setting [6]), 70 nm; in series [3] (setting [7]) it was 80 (80) nm; in series [3] (setting [8]) it was 80 (80) nm; in series [3] (SAN film, after 15 days at 80°C in the dark), 74 (74) nm; in series [3] (SAN film, initial value) it was 74 (74) nm.
Molecule `CCN(CC)c1ccc2c(c1)OC(c1ccccc1)=CC2=CC1=C([O-])C(=Cc2cc(-c3ccccc3)[o+]c3cc(N(CC)CC)ccc23)C1=O` [Control Dye y, reference compound] gave a Solubility in series [1] of 0.02 wt. %.
